Reference: ChEMBL document CHEMBL1125454, “Synthesis and evaluation of a new series of mechanism-based aromatase inhibitors” (J Med Chem, 1992)
Values joined by “and” are separate entries in the source; they are usually repeats but may differ in a detail not shown here. Identical values can stand only once.

Columns and labels:
Aromatase [1] = molecular target: T1, Aromatase (Homo sapiens, UniProt P11511); assay: Inhibition of Cytochrome P450 19A1
T1 sequence (P11511 whole entry): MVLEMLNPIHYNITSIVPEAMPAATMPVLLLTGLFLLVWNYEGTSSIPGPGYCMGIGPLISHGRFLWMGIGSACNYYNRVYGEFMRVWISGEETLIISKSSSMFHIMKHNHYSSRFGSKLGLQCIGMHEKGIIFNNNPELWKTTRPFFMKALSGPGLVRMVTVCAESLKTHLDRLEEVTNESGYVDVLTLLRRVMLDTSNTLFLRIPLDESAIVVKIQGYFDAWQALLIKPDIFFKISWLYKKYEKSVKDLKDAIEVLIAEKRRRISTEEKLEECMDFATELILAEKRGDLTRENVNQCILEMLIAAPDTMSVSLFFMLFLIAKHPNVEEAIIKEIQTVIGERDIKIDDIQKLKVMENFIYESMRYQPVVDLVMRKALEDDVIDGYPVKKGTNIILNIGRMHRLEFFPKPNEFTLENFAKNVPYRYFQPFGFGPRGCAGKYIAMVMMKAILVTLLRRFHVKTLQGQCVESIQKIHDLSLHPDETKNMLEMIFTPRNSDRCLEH

[2] = Half-life period of the compound; NTD = Not time dependent; format: ADME
Aromatase [3] = molecular target: T1, Aromatase; assay: Inhibition of cytochrome P450 19A1
[4] = kinact was determined; NTD = Not time dependent; format: ADME
[5] = kinact was determined.; format: ADME
Aromatase [6] = molecular target: T1, Aromatase; assay: Inhibition constant for human placental cytochrome P450 19A1
Aromatase [7] = molecular target: T1, Aromatase; assay: Inhibition constant for human placental Cytochrome P450 19A1
Aromatase [8] = molecular target: T1, Aromatase; assay: Percent cytochrome P450 19A1 activity remaining after 5 minute pretreatment with 0.5 uM androstenedione
Aromatase [9] = molecular target: T1, Aromatase; assay: Percent cytochrome P450 19A1 activity remaining after 5 minute pretreatment with 1 uM androstenedione
Aromatase [10] = molecular target: T1, Aromatase; assay: Percent cytochrome P450 19A1 activity remaining after 10 minute pretreatment with 0.5 mM beta-mercaptoethanol
Aromatase [11] = molecular target: T1, Aromatase; assay: Percent cytochrome P450 19A1 activity remaining after 10 minute pretreatment with 1 uM androstenedione
Aromatase [12] = molecular target: T1, Aromatase; assay: Percent cytochrome P450 19A1 activity remaining after pretreatment with 1 uM androstenedione (t=0 control)
Aromatase [13] = molecular target: T1, Aromatase; assay: Percent cytochrome P450 19A1 activity remaining after 5 minute pretreatment with 10 mM beta-mercaptoethanol
Aromatase [14] = molecular target: T1, Aromatase; assay: Percent cytochrome P450 19A1 activity remaining after 10 minute pretreatment with 0.5 uM androstenedione
Aromatase [15] = molecular target: T1, Aromatase; assay: Percent cytochrome P450 19A1 activity remaining after pretreatment with 0.5 uM androstenedione (t=0 control)

Row | Structure (SMILES) | IC50 (Aromatase [3]) [nM] | K inact [5] | Ki (Aromatase [6]) [nM] | other results
1 | C[C@]12CCC(=O)C(S)=C1CCC1C2CC[C@]2(C)C(=O)CCC12 (stereo partly specified) |  |  |  | IC50 (Aromatase [1]): 3500 nM
2 | CSC1=C2CCC3C(CC[C@]4(C)C(=O)CCC34)[C@@]2(C)CCC1=O (stereo partly specified) | 4400 |  |  | T1/2 [2]: Not time-dependent; K inact [4]: Not time-dependent
3 | C[C@]12CCC(=O)C(S)=C1CCC1C2=CC[C@]2(C)C(=O)CCC12 (stereo partly specified) | 3800 | 3.9 10e-3 s-1 | 72 | 
4 | C[C@]12CCC(=O)C(O)=C1CCC1C2=CC[C@]2(C)C(=O)CCC12 (stereo partly specified) | 350 |  |  | 
5 | CSCSC1=C2CCC3C(CC[C@]4(C)C(=O)CCC34)[C@@]2(C)CCC1=O (stereo partly specified) | 1200 |  |  | T1/2 [2]: Not time-dependent; K inact [4]: Not time-dependent
6 | C[C@]12CCC(=O)C(SCF)=C1CCC1C2CC[C@]2(C)C(=O)CCC12 (stereo partly specified) |  | 3.1 10e-3 s-1 |  | Ki (Aromatase [7]): 30 nM; IC50 (Aromatase [1]): 800 nM
7 | COCOC1=C2CCC3C(CC[C@]4(C)C(=O)CCC34)[C@@]2(C)CCC1=O (stereo partly specified) | 4400 | Not time-dependent |  | 
8 | C[C@]12CCC(=O)C(O)=C1CC[C@@H]1[C@@H]2CC[C@]2(C)C(=O)CC[C@@H]12 [FORMESTANE] | 370 | 2.3 10e-3 s-1 | 27 | 
9 | COCSC1=C2CCC3C(CC[C@]4(C)C(=O)CCC34)[C@@]2(C)CCC1=O (stereo partly specified) | 10000 | Not time-dependent |  | 
10 | C[C@]12CCC(=O)C(SC(F)F)=C1CC[C@@H]1[C@@H]2CC[C@]2(C)C(=O)CC[C@@H]12 | 2700 |  |  | T1/2 [2]: Not time-dependent; K inact [4]: Not time-dependent
11 | C[C@]12CCC(=O)C(SCCl)=C1CCC1C2=CC[C@]2(C)C(=O)CCC12 (stereo partly specified) | 860 | 4.8 10e-3 s-1 | 27 | 
12 | C[C@]12CCC(=O)C(SCCl)=C1CCC1C2CC[C@]2(C)C(=O)CCC12 (stereo partly specified) | 940 | 3.8 10e-3 s-1 | 30 | Activity (Aromatase [8]): 70%; Activity (Aromatase [9]): 32% and 36.8%; Activity (Aromatase [10]): 59%; Activity (Aromatase [11]): 10.2%; Activity (Aromatase [12]): 9.8%; Activity (Aromatase [13]): 5%; Activity (Aromatase [14]): 36.5% and 46%; Activity (Aromatase [15]): 49%
13 | C[C@]12CCC(=O)C(SCC#N)=C1CC[C@@H]1[C@@H]2CC[C@]2(C)C(=O)CC[C@@H]12 |  | 1.2 10e-3 s-1 |  | Ki (Aromatase [7]): 169 nM; IC50 (Aromatase [1]): 3700 nM
